The values that follow come from ChEMBL document CHEMBL1795334, “Towards predictive inhibitor design for the EGFR autophosphorylation activity” (Eur J Med Chem, 2008).

Structures are written as SMILES.

This assay deals with Epidermal growth factor receptor (Homo sapiens, UniProt P00533). Description: Inhibition autophosphorylation of EGFR in human DiFi cells after 2 hrs by ELISA. In kind it is cell-based. For orientation: In an ELISA, binding on a coated surface is turned into a signal by an enzyme label.
Epidermal growth factor receptor, sequence (P00533 whole entry): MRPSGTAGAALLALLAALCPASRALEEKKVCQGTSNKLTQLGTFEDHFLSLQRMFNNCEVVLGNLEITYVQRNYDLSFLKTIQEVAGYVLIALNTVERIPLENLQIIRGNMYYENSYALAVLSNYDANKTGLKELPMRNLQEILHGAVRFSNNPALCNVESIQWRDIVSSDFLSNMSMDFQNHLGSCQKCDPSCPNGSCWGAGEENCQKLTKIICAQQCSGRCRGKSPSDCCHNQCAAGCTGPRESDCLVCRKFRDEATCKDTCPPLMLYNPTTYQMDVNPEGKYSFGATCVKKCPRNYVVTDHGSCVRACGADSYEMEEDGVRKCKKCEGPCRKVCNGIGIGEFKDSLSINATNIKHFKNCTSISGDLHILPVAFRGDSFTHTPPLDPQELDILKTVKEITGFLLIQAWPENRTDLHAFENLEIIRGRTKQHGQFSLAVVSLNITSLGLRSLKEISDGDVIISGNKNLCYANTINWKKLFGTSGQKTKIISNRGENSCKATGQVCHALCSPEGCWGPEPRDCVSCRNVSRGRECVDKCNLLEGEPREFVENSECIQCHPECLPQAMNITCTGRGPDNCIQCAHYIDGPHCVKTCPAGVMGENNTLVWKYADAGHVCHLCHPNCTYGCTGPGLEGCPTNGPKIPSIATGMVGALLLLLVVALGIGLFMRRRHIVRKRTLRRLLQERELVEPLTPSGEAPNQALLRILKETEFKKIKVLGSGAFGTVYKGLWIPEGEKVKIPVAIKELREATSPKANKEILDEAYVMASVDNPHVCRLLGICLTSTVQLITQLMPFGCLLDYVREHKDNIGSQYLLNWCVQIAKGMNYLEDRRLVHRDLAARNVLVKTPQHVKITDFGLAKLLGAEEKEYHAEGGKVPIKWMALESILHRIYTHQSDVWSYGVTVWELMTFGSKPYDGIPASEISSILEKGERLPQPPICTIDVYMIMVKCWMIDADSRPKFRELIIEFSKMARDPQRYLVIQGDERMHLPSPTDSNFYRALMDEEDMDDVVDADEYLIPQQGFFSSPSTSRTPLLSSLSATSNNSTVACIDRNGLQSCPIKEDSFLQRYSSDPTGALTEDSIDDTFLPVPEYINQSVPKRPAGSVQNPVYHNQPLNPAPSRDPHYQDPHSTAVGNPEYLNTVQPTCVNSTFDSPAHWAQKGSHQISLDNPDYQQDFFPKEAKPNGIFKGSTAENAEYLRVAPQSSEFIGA
Take `CCOc1cc2ncc(C#N)c(Nc3cccc(Br)c3)c2cc1OCC`: half-maximal inhibition (IC50) required 0.417 µM. `COc1cc2c(C#N)cnc(Nc3cccc(Cl)c3)c2cc1OC`: the IC50 – broadly, the concentration that gives 50% inhibition – is 89.1 µM. This IC50 is about 210-fold higher than that of the compound before. Under `COc1cc2ncc(C=O)c(Nc3cccc(Br)c3)c2cc1OC` stands 3.39 µM; under `COc1cc2ncc(C#N)c(Nc3ccc(C)c(Cl)c3)c2cc1OC`, 1.48 µM. Consider `COc1cc2ncc(C#N)c(Nc3cccc(Cl)c3)c2cc1OC`, for which the IC50 was 0.182 µM. With `COc1cc2ncc(C#N)c(Nc3ccccc3Br)c2cc1OC`, the IC50 was 4.17 µM.

For `COc1cc2ncc(C#N)c(Nc3cccc(C(C)C)c3)c2cc1OC`, 61.7 µM corresponded to half-maximal inhibition (IC50).

For `COc1cc2ncc(C#N)c(Nc3cccc(N)c3)c2cc1OC`, inhibition was half-maximal at 0.813 µM (IC50). As to `COc1cc2ncc(C#N)c(Nc3ccc(Br)c(C)c3)c2cc1OC`, half-maximal inhibition (IC50) was put at 0.617 µM.

Compound `CCOc1cc2c(Nc3cccc(Br)c3)c(C#N)cnc2cc1OC` gave an IC50 of 33.1 µM. Consider `COc1cc2ncc(C#N)c(Nc3cccc(O)c3)c2cc1OC`, for which the IC50 is 6.31 µM.

`COc1cc2ncc(C#N)c(Nc3ccc(O)c(Cl)c3)c2cc1OC` gave an IC50 of 9.12 µM. The IC50 values of the last two compounds are within 1.5-fold of each other.

`COc1cc2ncc(C#N)c(Nc3cccc(C#N)c3)c2cc1OC`: half-maximal inhibition (IC50) was put at 14.1 µM. On to `COCOc1cc2ncc(C#N)c(Nc3cccc(Br)c3)c2cc1OCOC`, for which half-maximal inhibition (IC50) was put at 6.76 µM. In turn, `COc1cc2ncc(C#N)c(Nc3ccc(C)c(Br)c3)c2cc1OC` showed an IC50 of 1.78 µM.

Regarding `CCOc1cc2ncc(C#N)c(Nc3cccc(Br)c3)c2cc1OC`, inhibition was half-maximal at 21.4 µM (IC50). Turning to `COc1cc2ncc(C#N)c(Nc3ccc(Cl)cc3F)c2cc1OC`, the IC50 is 13.8 µM.

Compound `COc1cc2ncc(C#N)c(Nc3cccc(Br)c3C)c2cc1OC` had an IC50 of 0.832 µM.

The compound `COc1cc2ncc(C#N)c(Nc3cccc(SC)c3)c2cc1OC` gave an IC50 of 0.759 µM. This IC50 and that of the compound before are within 1.5-fold of each other. On to `COc1cc2ncc(C#N)c(Nc3cccc(C(N)=O)c3)c2cc1OC`, for which the IC50 was 7.76 µM. Under `CCOc1cc2ncc(C#N)c(Nc3ccc(F)c(Cl)c3)c2cc1OCC` stands 0.977 µM; under `COc1cc2ncc(C#N)c(Nc3cccc(NC(C)=O)c3)c2cc1OC`, 69.2 µM. Compound `COc1cc2ncc(C#N)c(Nc3ccc(F)cc3)c2cc1OC` gave an IC50 of 47.9 µM. Regarding `COc1cc2ncc(C(=O)O)c(Nc3cccc(Br)c3)c2cc1OC`, half-maximal inhibition (IC50) was put at 33.9 µM.
